Laboratory results published in article PMC6211260 (Journal of Enzyme Inhibition and Medicinal Chemistry, 2018).

Tests used:
Leukaemia cell lines = experiment: NCI five-dose testing, subpanel mean; assay type: cell-based; details: subpanel I: Leukaemia
Protocol: (§1) Screening against the cancer cell lines was carried out at the National Cancer Institute (NCI, Bethesda, Maryland, USA) applying the standard protocol of the NCI[22].

CNS cancer cell lines = experiment: NCI five-dose testing, subpanel mean; assay type: cell-based; details: subpanel IV: CNS cancer
Protocol: as §1

[1] = system: prostate cancer cell lines; experiment: NCI five-dose testing, subpanel mean; assay type: cell-based; details: subpanel VIII: prostate cancer
Protocol: as §1

colon cancer cell lines = experiment: NCI five-dose testing, subpanel mean; assay type: cell-based; details: subpanel III: colon cancer
Protocol: as §1

melanoma cell lines = experiment: NCI five-dose testing, subpanel mean; assay type: cell-based; details: subpanel V: melanoma
Protocol: as §1

[2] = system: non-small cell lung cancer cell lines; experiment: NCI five-dose testing, subpanel mean; assay type: cell-based; details: subpanel II: non-small cell lung cancer
Protocol: as §1

[3] = system: ovarian cancer cell lines; experiment: NCI five-dose testing, subpanel mean; assay type: cell-based; details: subpanel VI: ovarian cancer
Protocol: as §1

renal cancer cell lines = experiment: NCI five-dose testing, subpanel mean; assay type: cell-based; details: subpanel VII: renal cancer
Protocol: as §1

breast cancer cell lines = experiment: NCI five-dose testing, subpanel mean; assay type: cell-based; details: subpanel IX: breast cancer
Protocol: as §1

Plasma stability = assay type: in vitro ADME; details: 37 °C, 10 µM
Protocol: About 10 µM of compound 2l was mixed with human plasma and rat plasma and the mixture was shaked at 37 °C for 30 min and 120 min. After each time interval, acetonitrile was added and the mixture was centrifugated (14000 rpm, 4 °C). The supernatant was injected into the LC-MS to detect the remaining amount of compound 2l.

hERG = molecular target: T1, hERG (Homo sapiens, UniProt Q12809); experiment: hERG binding assay (hERG Fluorescence Polarization Assay)
T1 construct: purchased Invitrogen PV5365
T1 sequence (Q12809 whole entry): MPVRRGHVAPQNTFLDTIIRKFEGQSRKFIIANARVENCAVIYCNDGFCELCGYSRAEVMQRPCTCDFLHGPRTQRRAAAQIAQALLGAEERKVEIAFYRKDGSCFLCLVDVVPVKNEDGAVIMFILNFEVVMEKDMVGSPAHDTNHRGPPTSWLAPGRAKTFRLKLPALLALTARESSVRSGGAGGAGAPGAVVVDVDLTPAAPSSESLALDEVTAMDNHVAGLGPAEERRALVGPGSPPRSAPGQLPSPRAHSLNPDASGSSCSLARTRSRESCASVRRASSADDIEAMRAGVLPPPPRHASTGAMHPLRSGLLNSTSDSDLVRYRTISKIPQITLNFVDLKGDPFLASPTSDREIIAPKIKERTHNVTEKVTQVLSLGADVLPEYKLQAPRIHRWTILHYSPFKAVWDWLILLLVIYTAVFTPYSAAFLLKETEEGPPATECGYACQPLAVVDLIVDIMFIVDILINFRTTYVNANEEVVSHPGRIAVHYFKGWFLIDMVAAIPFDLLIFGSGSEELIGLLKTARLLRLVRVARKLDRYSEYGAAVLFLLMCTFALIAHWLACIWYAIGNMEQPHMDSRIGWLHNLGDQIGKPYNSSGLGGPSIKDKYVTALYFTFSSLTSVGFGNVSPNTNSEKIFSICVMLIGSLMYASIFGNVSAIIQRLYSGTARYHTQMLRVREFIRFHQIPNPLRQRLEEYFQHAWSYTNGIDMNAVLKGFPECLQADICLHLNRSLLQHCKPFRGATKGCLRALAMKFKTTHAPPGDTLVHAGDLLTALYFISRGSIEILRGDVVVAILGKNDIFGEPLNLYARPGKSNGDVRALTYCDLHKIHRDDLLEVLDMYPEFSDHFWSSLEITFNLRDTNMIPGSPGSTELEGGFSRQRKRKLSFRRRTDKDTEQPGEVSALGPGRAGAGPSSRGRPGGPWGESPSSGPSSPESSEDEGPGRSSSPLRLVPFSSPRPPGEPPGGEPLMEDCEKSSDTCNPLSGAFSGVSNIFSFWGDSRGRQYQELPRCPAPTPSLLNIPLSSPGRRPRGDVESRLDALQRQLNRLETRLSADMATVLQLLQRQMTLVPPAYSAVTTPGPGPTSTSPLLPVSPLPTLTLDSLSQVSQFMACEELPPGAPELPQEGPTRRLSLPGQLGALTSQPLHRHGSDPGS
Protocol: hERG binding assay was performed using hERG Fluorescence Polarization Assay (Invitrogen: PV5365) assay kit and Synergy Neo (Biotek) and standard procedures were applied.

NCI-60 cell line panel = experiment: NCI-60 single-dose (10 µM) antiproliferative screening, mean over panel; assay type: cell-based; details: single-dose 10 µM
Protocol: as §1
(§2) The final target compounds were submitted to the National Cancer Institute (NCI), Maryland, USA[23]. Thirty-one compounds were selected to be tested over 60 cell lines at single dose 10 µM.

KDR/VEGFR2 = molecular target: T2, KDR/VEGFR2 (Homo sapiens, UniProt P35968); experiment: In vitro kinase screening (Kinase HotSpot); assay type: biochemical; details: single dose of 10 µM
T2 construct: purchased Reaction Biology Corp
T2 sequence (P35968 20-1356): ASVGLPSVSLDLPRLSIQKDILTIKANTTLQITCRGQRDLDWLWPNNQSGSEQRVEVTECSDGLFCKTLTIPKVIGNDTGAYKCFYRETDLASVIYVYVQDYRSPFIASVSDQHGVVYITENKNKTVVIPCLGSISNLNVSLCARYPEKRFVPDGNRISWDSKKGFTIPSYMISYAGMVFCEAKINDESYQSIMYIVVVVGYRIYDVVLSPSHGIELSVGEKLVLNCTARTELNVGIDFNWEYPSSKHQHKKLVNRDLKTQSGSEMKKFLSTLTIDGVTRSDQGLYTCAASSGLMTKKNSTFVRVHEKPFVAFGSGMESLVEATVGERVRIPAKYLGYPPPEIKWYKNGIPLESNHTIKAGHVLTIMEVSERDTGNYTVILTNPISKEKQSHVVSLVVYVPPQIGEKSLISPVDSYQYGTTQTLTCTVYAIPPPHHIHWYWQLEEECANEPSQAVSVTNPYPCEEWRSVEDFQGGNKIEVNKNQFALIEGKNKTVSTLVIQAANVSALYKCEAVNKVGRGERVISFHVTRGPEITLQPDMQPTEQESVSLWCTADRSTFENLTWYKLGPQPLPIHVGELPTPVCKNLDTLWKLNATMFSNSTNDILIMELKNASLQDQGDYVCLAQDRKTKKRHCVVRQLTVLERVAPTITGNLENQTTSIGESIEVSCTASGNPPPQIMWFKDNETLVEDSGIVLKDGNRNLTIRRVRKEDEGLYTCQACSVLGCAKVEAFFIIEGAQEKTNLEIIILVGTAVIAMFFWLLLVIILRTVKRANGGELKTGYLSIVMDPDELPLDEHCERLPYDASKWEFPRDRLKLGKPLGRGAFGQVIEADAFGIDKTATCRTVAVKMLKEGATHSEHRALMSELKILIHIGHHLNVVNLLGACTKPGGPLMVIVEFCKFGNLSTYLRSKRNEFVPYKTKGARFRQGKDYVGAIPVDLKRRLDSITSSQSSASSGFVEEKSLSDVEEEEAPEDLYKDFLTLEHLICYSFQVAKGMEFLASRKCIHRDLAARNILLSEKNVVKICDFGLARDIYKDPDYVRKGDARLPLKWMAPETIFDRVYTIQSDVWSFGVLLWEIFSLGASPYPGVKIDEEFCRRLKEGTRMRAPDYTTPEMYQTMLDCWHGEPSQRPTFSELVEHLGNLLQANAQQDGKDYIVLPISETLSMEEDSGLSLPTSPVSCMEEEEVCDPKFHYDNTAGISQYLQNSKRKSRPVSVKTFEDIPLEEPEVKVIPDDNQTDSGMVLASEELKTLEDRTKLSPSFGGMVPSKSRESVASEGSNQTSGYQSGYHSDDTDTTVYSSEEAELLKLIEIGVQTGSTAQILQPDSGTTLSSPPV
Text: (§3) To investigate the biological target of compound, Reaction Biology Corp. Kinase HotSpotSM service was used adopting standard assay protocol.

CDK2/cyclin E = molecular target: T3, CDK2/cyclin E (Homo sapiens, UniProt P24941); experiment: In vitro kinase screening (Kinase HotSpot); assay type: biochemical; details: single dose of 10 µM
T3 construct: purchased Reaction Biology Corp
Text: as §3

[4] = system: LOX IMVI melanoma cell line; experiment: NCI-60 single-dose screening; assay type: cell-based; details: 10 µM
Protocol: as §1, §2

[5] = system: Colo 205 colon cancer cell line; experiment: NCI-60 single-dose screening; assay type: cell-based; details: 10 µM
Protocol: as §1, §2

[6] = system: SK-MEL-5 melanoma cell line; experiment: NCI-60 single-dose screening; assay type: cell-based; details: 10 µM
Protocol: as §1, §2

[7] = system: SF-295 CNS cancer cell line; experiment: NCI-60 single-dose screening; assay type: cell-based; details: 10 µM
Protocol: as §1, §2

[8] = system: SK-MEL-28 melanoma cell line; experiment: NCI-60 single-dose screening; assay type: cell-based; details: 10 µM
Protocol: as §1, §2

[9] = system: HCC-2998 colon cancer cell line; experiment: NCI-60 single-dose screening; assay type: cell-based; details: 10 µM
Protocol: as §1, §2

[10] = In vivo pharmacokinetic assay; details: SD rats, 10 mg/kg, mean, N = 3
Protocol: Serum samples were collected each 30 min. The blood concentration of the test compounds was determined by LC-MS/MS (Agilent 1290 infinity II series equipped with on-line degasser, binary pump, thermostatted well-plate autosampler and column compartment, Waters Atlantis® HSS T3 (2.1 × 100 mm, 1.9 µm) column, and mobile phase linear gradient from 95% A (0.1% formic acid in water) /5% B (0.1% formic acid in acetonitrile) to 5% A/95% B, 6500+ QTRAP LC-MS/MS/MS system, Turbo Spray Ion Drive as ion source, and Carbamazepine as internal standard. Pharmacokinetic parameters were obtained by non-compartmental analysis of the plasma concentration–time profiles using KineticaTM 4.4.1 (Thermo Fisher Scientific, Inc., Woburn, MA, USA).

O=S(=O)(NCCCNc1cc(-c2cn(-c3ccccc3)nc2-c2cccc(O)c2)ccn1)c1ccc(Cl)cc1 [Compound 2l, 4-Chloro-N-(3-((4-(3-(3-hydroxyphenyl)-1-phenyl-1H-pyrazol-4-yl)pyridin-2-yl)amino)propyl) benzenesulfonamide]
IC50 (Leukaemia cell lines): 1.44 µM
IC50 (CNS cancer cell lines): 1.65 µM
IC50 [1]: 2.28 µM
IC50 (colon cancer cell lines): 1.51 µM
IC50 (melanoma cell lines): 1.68 µM
IC50 [2]: 2.32 µM
IC50 [3]: 2.09 µM
IC50 (renal cancer cell lines): 2.06 µM
IC50 (breast cancer cell lines): 1.58 µM
Plasma stability, remaining unchanged (Plasma stability; Human plasma, 30 min): 100%
Plasma stability, remaining unchanged (Plasma stability; Human plasma, 30 min, listed as 2 l): 100%
Plasma stability, remaining unchanged (Plasma stability; Human plasma, 120 min): 95.3%
Plasma stability, remaining unchanged (Plasma stability; Human plasma, 120 min, listed as 2 l): 95.3%
Plasma stability, remaining unchanged (Plasma stability; Rat plasma, 30 min): 100%
Plasma stability, remaining unchanged (Plasma stability; Rat plasma, 120 min): 100%
IC50 (hERG): 8.28 µM
Mean % inhibition (NCI-60 cell line panel; 60-cancer cell line screening): 97.80%
number of cell lines with more than 100% inhibition (NCI-60 cell line panel; NCI-60 panel): 24
Inhibition % (KDR/VEGFR2): 10.05 ± 0.10%
Inhibition % (CDK2/cyclin E): 22.92 ± 1.14%
per cent inhibition [4]: 129.50%
per cent inhibition [5]: 170.28%
per cent inhibition [6]: 156.35%
per cent inhibition [7]: 155.19%
per cent inhibition [8]: 136.19%
per cent inhibition [9]: 162.39%
AUCinf ([10]; IV): 1478.2 ng·h/mL
AUClast ([10]; IV): 1471.6 ng·h/mL
CL ([10]; IV): 113 mL/min/kg
t1/2 ([10]; IV): 5.8 h
AUCinf ([10]; PO): 142.1 ng·h/mL
AUClast ([10]; PO): 136.0 ng·h/mL
Cmax ([10]; PO): 36.6 ng/mL
F (oral bioavailability) ([10]; PO): 9.2%
Tmax ([10]; PO): 0.5 h
t1/2 ([10]; PO): 6.1 h
